Measurements as given in patent US9096524B2, “Anthelmintic agents and their use” (Intervet International B.V., priority 2009, dated 2015).
Like-named read-outs stand apart in the source and are kept apart here.

Assays:
[1] = system: A. galli (intestinal roundworm of chicken) larval stage 3; O. dentatum (nodular worm of swine) larval stages 3 and 4; assay: Activity against Ascaridia galli and Oesophagostomum dentatum larvae in vitro (minimum effective concentration); type: cell-based
Haemonchus contortus [2] = assay: Efficacy against Haemonchus contortus in sheep; type: in vivo; conditions: oral, single treatment, worm burden in abomasum 7 days after treatment
Description: Anthelmintic effects of compounds of this invention were tested in vivo using Haemonchus contortus in sheep. The sheep were orally infected with approximately 5,000 third-stage larvae of Haemonchus contortus. Thirty-five days after infection, the sheep in the treatment groups were treated once orally at a dose of 2, 5, 10, and/or 50 mg per kg bodyweight. Seven days after treatment, the sheep were necropsied, and the worm burden in the abomasum was determined. The efficacy was defined as the reduction of the mean worm count in the infected sheep of the treatment groups in comparison to the infected sheep in the untreated negative control group.

Haemonchus contortus [3] = assay: Efficacy against Haemonchus contortus in jirds; type: in vivo, jirds (Meriones unguiculatus); conditions: 72 h, read-out: % Reduction in H.
How it was run: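 Jirds orally infected with ~750-3,000 H. contortus L3 larvae were dosed once, orally or subcutaneously, at 2, 10 and/or 50 mg/kg on day 10 post-infection. Stomach larval burden was counted at necropsy 3 days post-treatment; efficacy is the reduction of mean count versus untreated infected controls.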

[4] = system: Haemonchus contortus larval stage 4, isolate with a resistance to benzimidazoles and ivermectin and anthelmintic-sensitive isolate; assay: Resistance-breaking activity against Haemonchus contortus L4 in vitro, resistant isolate compared with sensitive isolate; type: cell-based; conditions: isolate resistant to benzimidazoles and ivermectin vs sensitive isolate
Description: Anthelmintic resistance-breaking effects of compounds of this invention were tested in vitro using larval stage 4 (“L4”) of the parasitic nematode species Haemonchus contortus (Barber's pole worm in ruminants). One isolate of Haemonchus contortus with a resistance to benzimidazoles and ivermectin was tested in comparison to the anthelmintic-sensitive isolate of Haemonchus contortus. When conducting these experiments, various concentrations of the compounds were incubated in 96-well microtiter plates. Parasites were then distributed at 20 larvae per well. The anthelmintic effects were classified by microscopic examination. The microscopic examination included assessing mortality, damage, motility, progression of development, and neutral red uptake by the larvae in comparison to a DMSO-control and standard anthelmintics. The anthelmintic effects were defined by the minimum effective concentration (“MEC”).

[5] = read-out: MEC (minimum effective concentration) against two or more of the tested nematodes, in vitro, two or more of A. galli L3, O. dentatum L3, L4, threshold 1 μM

CC(CN1CCN(c2ccc(C(F)(F)F)cc2)CC1)C(=O)N1CCC(Nc2ccc([N+](=O)[O-])c(C(F)(F)F)c2)CC1 (stereo not drawn) [Example 64, 2-methyl-1-[4-(4-nitro-3-trifluoromethyl-phenylamino)-piperidin-1-yl]-3-[4-(4-trifluoromethyl-phenyl)-piperazin-1-yl]-propan-1-one]
minimal effective concentration ([1]; read-out: MEC (minimum effective concentration) against one or more of the tested nematodes, in vitro, one or more of A. galli L3, O. dentatum L3, L4, threshold 1 μM): < 1 µM | minimal effective concentration ([1]; read-out: MEC (minimum effective concentration) against one or more of the tested nematodes, in vitro, one or more of A. galli L3, O. dentatum L3, L4, threshold 7 μM): < 7 µM | minimal effective concentration [1, 5]: < 1 µM | % Reduction in H. (Haemonchus contortus [2]; 10 mg/kg): 75% | inhibition in vivo at 50 mg/kg (Haemonchus contortus [3]; po): 100% | inhibition in vivo at 50 mg/kg (Haemonchus contortus [3]; sc): 100% | activity (MEC) against the resistant versus the sensitive isolate of Haemonchus contortus [4]: the same activity against the resistant and the sensitive isolate

N#Cc1ccc(NC2CCN(C(=O)CCN3CCN(c4ccc(Cl)cc4)CC3)CC2)cc1C(F)(F)F [Example 325]
minimal effective concentration [1, 5]: < 1 µM | % Reduction in H. (Haemonchus contortus [2]; 50 mg/kg): 96% | inhibition in vivo at 50 mg/kg (Haemonchus contortus [3]; po): 92% | inhibition in vivo at 50 mg/kg (Haemonchus contortus [3]; sc): 97% | activity (MEC) against the resistant versus the sensitive isolate of Haemonchus contortus [4]: the same activity against the resistant and the sensitive isolate
